What was measured:
[1] = target: T1, MEK1 (Recombinant Human Protein) (Homo sapiens, UniProt Q02750); assay: MEK1 kinase inhibition assay (Z'-LYTE Kinase Assay Kit-Ser/Thr 03 Peptide); assay type: biochemical; details: 4 hours at 37° C, read-out: IC50 for inhibiting MEK kinase (MEK1)
T1 construct: purchased Invitrogen PV3093
Experimental: MEK1 kinase activity was tested in vitro by the following method.
MEK kinase used in the assay: MEK1 (Recombinant Human Protein, Invitrogen, Catalog No. PV3093).
Kit used in the assay: Z′-LYTE™ Kinase Assay Kit-Ser/Thr 03 Peptide (Invitrogen, Catalog No. PV3176).
The following in vitro assay was used to determine the activity of the compounds of the present invention for inhibiting the […] MEK kinase. The test compound was dissolved in dimethyl sulfoxide to the desired concentration. 1× Buffer A (Invitrogen, Catalog No. PV3189) was prepared, ATP was diluted with 1× Buffer A to obtain 400 μM ATP solution, appropriate amounts of Z′-LYTE™ Ser/Thr 03 Peptide (Invitrogen, Catalog No. PV3200), MEK kinase (MEK1) Enzymes and 1× Buffer A were mixed, and appropriate amounts of Z′-LYTE™ Ser/Thr 03 phosphoPeptide substrate (Invitrogen, Catalog No. PV3215) and 1× Buffer A were formulated into a mixture to be tested. The 4% DMSO solution of the test compound was prepared from 1× buffer and DMSO solution of the test compound. 2.5 μL DMSO solution of the test compound was added to a reaction well, and then 1× Buffer A, 2.5 μL of 400 μM ATP solution, 5 μL of enzyme and substrate mixture were added to become a 10 μL of reaction system. The reaction system was incubated for 4 hours at 37° C., and a mixture was prepared according to Reagent A:Buffer B=1:1024. 5 μL of a mixture of Reagent A (Invitrogen, Catalog No. PV3295) and Buffer B (Invitrogen, Catalog No. P3127) was added to a reaction well, the reaction system was incubated for 60 minutes at 25° C. The fluorescence was read by a NovoStar ELISA with excitation wavelength: 400 nm, and emission wavelength: 445 nm and 520 nm.
The activity of the compounds of the present invention: The above assay was used to determine the biochemical activity of the compounds of the present invention for inhibiting MEK kinase (MEK1).

[2] = tested on: Colo205 cell; assay: Proliferation inhibition on Colo205 (CCK8); assay type: cell-based; details: Homo sapiens, COLO 205, Colo205, 72 hours
Text: Cell line used in the assay: Colo205 (Cell Bank of the Chinese Academy of Sciences, Catalog No. TCHu102).
The following in vitro cell assay is to determine the activity of the compounds of the present invention for inhibiting the proliferation of human colon cancer cell, and the activity is expressed as IC50. General programs of this kind of assay were as follows: First, the cell line to be tested (purchased from Cell Bank of the Chinese Academy of Sciences) was inoculated in a 96-well culture plate with a suitable cell concentration of 4000 cells/mL medium, and was cultured in a carbon dioxide incubator at 37° C., then grown overnight. The medium was replaced by new medium added with a series of concentrations (10000 nM, 1000 nM, 100 nM, 10 nM, 1 nM, 0.1 nM) of the test compound solutions. The plates were placed back in the incubator, and continuously cultured for 72 hours. After 72 hours, CCK8 (Cell Counting Kit-8, Catalog No.: CK04, purchased from colleagues chemical company) method was used to determine the proliferation inhibition activity of the test compounds. IC50 values were calculated from the inhibition data of the test compounds at a series of different concentrations.
(§1) The above assay was used to determine the biochemical activity of the compounds of the present invention.

[3] = tested on: HCT116 cell; assay: Proliferation inhibition on human colon cancer cell HCT116 (CCK8); assay type: cell-based; details: HCT-116, HCT116, 72 hours
Text: The following in vitro cell assay was used to determine the activity of the compounds of the present invention for inhibiting the proliferation of human colon cancer cell, and the activity is expressed as IC50.
Cell line which was used in the experiment: HCT116 (Cell Bank of the Chinese Academy of Sciences, Catalog No. TCHu99).
General programs of this kind of assay were as follows: First, the cell line to be tested was inoculated in a 384-well culture plate with a suitable cell concentration of 1000 cells/well, and was cultured in an incubator under the conditions of 37° C. and 5% CO2, then grown overnight. The medium was replaced by new medium added with a series of concentrations (1000 nM, 250 nM, 62.50 nM, 15.63 nM, 3.91 nM, 0.98 nM, 0.24 nM, 0.06 nM, 0.015 nM, 0.004 nM) of the test compound solutions. The plates were placed back in the incubator, and continuously cultured for 72 hours. After 72 hours, CCK8 (Cell Counting Kit-8, Catalog No.: CK04, purchased from colleagues chemical company) method was used to determine the proliferation inhibition activity of the test compounds. IC50 values were calculated from the inhibition data of the test compounds at a series of different concentrations.
as §1

T1 sequence (Q02750 whole entry): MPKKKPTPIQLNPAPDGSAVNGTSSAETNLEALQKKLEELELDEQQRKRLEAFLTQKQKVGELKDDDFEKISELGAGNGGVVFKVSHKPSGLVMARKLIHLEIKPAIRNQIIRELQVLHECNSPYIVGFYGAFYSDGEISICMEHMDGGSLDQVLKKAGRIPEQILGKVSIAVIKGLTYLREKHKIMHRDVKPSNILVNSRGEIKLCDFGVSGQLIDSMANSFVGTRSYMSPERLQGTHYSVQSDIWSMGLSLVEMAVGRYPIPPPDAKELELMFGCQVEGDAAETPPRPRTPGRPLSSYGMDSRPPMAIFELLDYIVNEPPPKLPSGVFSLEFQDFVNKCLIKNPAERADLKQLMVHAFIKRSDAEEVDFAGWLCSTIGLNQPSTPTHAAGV

IC50 [1] [nM]	IC50 [2] [nM]	IC50 [3] [nM]	Structure (SMILES)
4.1	0.04	0.06	CCS(=O)(=O)Nc1cccc(Oc2cc(=O)n(C)c(Nc3ccc(I)cc3F)c2C(N)=O)c1C [Example 3, 4-(3-(ethylsulfonamido)-2-methylphenoxy)-2-((2-fluoro-4-iodophenyl)amino)-1-methyl-6-oxo-1,6-dihydropyridine-3-carboxamide]
4.3	6.1	10.3	Cc1cc(F)ccc1Oc1cc(=O)n(C)c(Nc2ccc(I)cc2F)c1C(N)=O [Example 22, 4-(4-fluoro-2-methylphenoxy)-2-((2-fluoro-4-iodophenyl)amino)-1-methyl-6-oxo-1,6-dihydropyridine-3-carboxamide]
3.6	0.8	8.9	Cc1ncccc1Oc1cc(=O)n(C)c(Nc2ccc(I)cc2F)c1C(N)=O [Example 29, 2-((2-fluoro-4-iodophenyl)amino)-1-methyl-4-((2-methylpyridin-3-yl)oxy)-6-oxo-1,6-dihydropyridine-3-carboxamide]
3.9	3.6	36.4	Cc1ccc(Oc2cc(=O)n(C)c(Nc3ccc(I)cc3F)c2C(N)=O)cn1 [Example 31, 2-((2-fluoro-4-iodophenyl)amino)-1-methyl-4-((6-methylpyridin-3-yl)oxy)-6-oxo-1,6-dihydropyridine-3-carboxamide]
4.7	0.7	8.6	Cc1c(F)cccc1Oc1cc(=O)n(C)c(Nc2ccc(I)cc2F)c1C(N)=O [Example 1, 4-(3-fluoro-2-methylphenoxy)-2-((2-fluoro-4-iodophenyl)amino)-1-methyl-6-oxo-1,6-dihydropyridine-3-carboxamide]

From patent US10064848B2, “Pyridic ketone derivatives, method of preparing same, and pharmaceutical application thereof” (Shanghai Hengrui Pharmaceutical Co., Ltd., priority 2013, dated 2018)
